Data published in patent US20240408169A1 (priority 2023, published 2024).
Like-named read-outs stand apart in the source and are kept apart here. *1 amine or outer side, *2 acyl side, *3 side chain or, on linkers, in order; H or OH if unused. Where a SMILES comes first, the peptide text is derived from it. Bridges are numbered along the chain shown (N, C = ends). [ ]: non-standard residue; d: D form. The star is where a group is joined. X61 = Cc1nc2c(F)cc(-c3ccc(Cl)cc3C[C@@H](C(=O)[*:2])N(C)[*:1])cc2n1C(C)C; X113 = Cc1cc(-c2ccc(Cl)cc2C[C@@H](C(=O)[*:2])N(C)[*:1])n(C)n1; X14 = Cc1nc(C)c(-c2ccc(Cl)cc2C[C@@H](C(=O)[*:2])N(C)[*:1])s1; X83 = CN([C@@H](Cc1cc(Cl)ccc1-c1cnn2c1COCC2)C(=O)[*:2])[*:1]; X89 = CN([C@@H](Cc1cc(Cl)ccc1-c1cnn(CC#N)c1)C(=O)[*:2])[*:1]; NMe3Pal(2-OiBu,5-Cl) = CN[C@@H](Cc1cc(Cl)cnc1OCC(C)C)C(=O)O; NMehhhLys(Me) = CN([C@@H](CCCCCCCN(C)[*:3])C(=O)[*:2])[*:1]; X2 = CN([C@@H](Cc1cc(Cl)ccc1-c1ccc2ncnn2c1)C(=O)[*:2])[*:1]; X67 = Cc1c(-c2ccc(Cl)cc2C[C@@H](C(=O)[*:2])N(C)[*:1])cnn1C; NMe3Pal(2-OMe,5-Cl) = CN[C@@H](Cc1cc(Cl)cnc1OC)C(=O)O; Oxane2carbonyl(2R-CF3) = O=C([C@@]1(C(F)(F)F)CCCCO1)*; Cyclobutanecarbonyl(1-CF3) = O=C(C1(C(F)(F)F)CCC1)*; cBuCO(3,3-F2-1-CF3) = O=C(C1(C(F)(F)F)CC(F)(F)C1)*; X25 = CCOc1ncc(Cl)cc1C[C@@H](C(=O)[*:2])N(C)[*:1]; Pro(trans-4-F) = O=C(O)[C@@H]1C[C@@H](F)CN1; Gly(cPr) = N[C@H](C(=O)O)C1CC1

What was measured:
NCI-H1048 cells = assay: MTT proliferation assay, NCI-H1048; type: cell-based; conditions: 5 days compound exposure, 1:3 serial dilution starting at 10 μM;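 note: Dose-response in 96-well plates over 8 or 10 concentration points, with exposure spanning 3-4 cell doublings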
CyclinB1/CDK1 = biological target: T1, CyclinB1/CDK1 (Homo sapiens, UniProt P14635); assay: Fluorescence Polarization (FP) competitive binding assay, Cyclin B1/Cdk1;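 note: fluorescence polarization read after equilibration at room temperature, with IC50 taken from serially diluted dose-response curves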
T1 construct: purchased Eurofins, discovery 14-450

OVCAR3 cells = assay: MTT proliferation assay, OVCAR3; type: cell-based; conditions: 5 days compound exposure, 1:3 serial dilution starting at 10 μM;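 note: compound given as an 8- or 10-point series, one day after plating, with exposure covering roughly 3-4 cell doublings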
WI-38 cells = assay: MTT proliferation assay, WI-38; type: cell-based; conditions: 3 days compound exposure, 1:3 serial dilution starting at 10 μM;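 note: Eight- or ten-point dilution series, with exposure length chosen to span about three to four cell doublings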
CyclinE1/CDK2 = biological target: T2, CyclinE1/CDK2 (Homo sapiens, UniProt P24864); assay: Fluorescence Polarization (FP) competitive binding assay, Cyclin E1/Cdk2;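 note: readings taken after two-hour equilibration at room temperature in HEPES buffer with NaCl, DTT, NP-40 and BSA, IC50 fitted from eight-concentration serial dilution series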
T2 construct: purchased Eurofins, discovery 14-475

CyclinA2/CDK2 = biological target: T3, CyclinA2/CDK2 (Homo sapiens, UniProt P20248); assay: Fluorescence Polarization (FP) competitive binding assay, Cyclin A2/Cdk2;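 note: plates equilibrated two hours at room temperature before polarization reading, IC50 fitted from eight-concentration compound titration curves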
T3 construct: purchased CRELUX Protein Services

[1] = 10 nM Cyclin B1/Cdk1, 2 nM FAM probe; average of 2-3 independent experiments; read-out: Cyclin B FP IC50
[2] = 10 nM Cyclin E1/Cdk2, 2 nM FAM probe, average of 2-3 independent experiments, read-out: Cyclin E FP IC50
[3] = 8 nM Cyclin A2/Cdk2, 2 nM FAM probe, average of 2-3 independent experiments, read-out: Cyclin A FP IC50
[4] = read-out: Cyclin B FP IC50; 10 nM Cyclin B1/Cdk1, 2 nM FAM probe; average of 2-3 independent experiments
[5] = read-out: Cyclin A FP IC50, 8 nM Cyclin A2/Cdk2, 2 nM FAM probe, average of 2-3 independent experiments

| Structure (SMILES) | GI50 (NCI-H1048 cells) [µM] | IC50 (CyclinB1/CDK1; [1]) [µM] | GI50 (OVCAR3 cells) [µM] | GI50 (WI-38 cells) [µM] | IC50 (CyclinE1/CDK2; [2]) [µM] | IC50 (CyclinA2/CDK2; [3]) [µM] | IC50 (CyclinB1/CDK1; [4]) [µM] | IC50 (CyclinE1/CDK2) [µM] | IC50 (CyclinA2/CDK2) [µM] | IC50 (CyclinA2/CDK2; [5]) [µM] |
| --- | --- | --- | --- | --- | --- | --- | --- | --- | --- | --- |
| Cc1nc(C)c(-c2ccc(Cl)cc2C[C@H]2C(=O)N(C)CCCCCCC[C@H](N(C)C(=O)[C@@H](NC(=O)[C@@H]3C[C@@H](F)CN3C(=O)C3(C(F)(F)F)CC(F)(F)C3)C3CC3)C(=O)N[C@@H](CC(C)C)C(=O)N2C)s1 [Example 207] ({cBuCO(3,3-F2-1-CF3)}-[Pro(trans-4-F)][Gly(cPr)][NMehhhLys(Me)]L[X14]; lactam 3-C) | 0.03 | 0.02 | 0.04 | 4.94 | 2.73 | 0.05 | – | – | – | – |
| CC(C)C[C@@H]1NC(=O)[C@@H](N(C)C(=O)[C@@H](NC(=O)[C@@H]2C[C@@H](F)CN2C(=O)C2(C(F)(F)F)CC(F)(F)C2)C2CC2)CCCCCCCN(C)C(=O)[C@H](Cc2cc(Cl)ccc2-c2cnn(CC#N)c2)N(C)C1=O [Example 216] ({cBuCO(3,3-F2-1-CF3)}-[Pro(trans-4-F)][Gly(cPr)][NMehhhLys(Me)]L[X89]; lactam 3-C) | 0.01 | – | 0.01 | 15.6 | – | – | 0.02 | 0.47 | 0.03 | – |
| CCN(C(=O)[C@@H](NC(=O)[C@@H]1C[C@@H](F)CN1C(=O)C1(C(F)(F)F)CC(F)(F)C1)C1CC1)[C@H]1CCCCCCCN(C)C(=O)[C@H](Cc2cc(Cl)cnc2OC2CC2)N(C)C(=O)[C@H](CC(C)C)NC1=O [Example 219] | 0.04 | – | 0.08 | 14.1 | – | – | 0.02 | 1.43 | 0.1 | – |
| CCN(C(=O)[C@@H](NC(=O)[C@@H]1C[C@@H](F)CN1C(=O)C1(C(F)(F)F)CCC1)C1CC1)[C@H]1CCCCCCCN(C)C(=O)[C@H](Cc2cc(Cl)cnc2OC2CC2)N(C)C(=O)[C@H](CC(C)C)NC1=O [Example 220] | 0.03 | – | 0.07 | 5.2 | – | – | 0.02 | 0.68 | 0.09 | – |
| CCN(C(=O)[C@@H](NC(=O)[C@@H]1C[C@@H](F)CN1C(=O)[C@@]1(C(F)(F)F)CCCCO1)C1CC1)[C@H]1CCCCCCCN(C)C(=O)[C@H](Cc2cc(Cl)cnc2OC2CC2)N(C)C(=O)[C@H](CC(C)C)NC1=O [Example 221] | 0.02 | – | 0.03 | 16.6 | – | – | 0.02 | 0.18 | 0.06 | – |
| COc1ncc(Cl)cc1C[C@H]1C(=O)N(C)CCCCCCC[C@H](N(C)C(=O)[C@@H](NC(=O)[C@@H]2C[C@@H](F)CN2C(=O)[C@@]2(C(F)(F)F)CCCCO2)C2CC2)C(=O)N[C@@H](CC(C)C)C(=O)N1C [Example 223] ({Oxane2carbonyl(2R-CF3)}-[Pro(trans-4-F)][Gly(cPr)][NMehhhLys(Me)]L[NMe3Pal(2-OMe,5-Cl)]; lactam 3-C) | 0.01 | – | 0.01 | 7.76 | – | – | 0.02 | 0.1 | – | 0.02 |
| COc1ncc(Cl)cc1C[C@H]1C(=O)N(C)CCCCCCC[C@H](N(C)C(=O)[C@@H](NC(=O)[C@@H]2C[C@@H](F)CN2C(=O)C2(C(F)(F)F)CCC2)C2CC2)C(=O)N[C@@H](CC(C)C)C(=O)N1C [Example 224] ({Cyclobutanecarbonyl(1-CF3)}-[Pro(trans-4-F)][Gly(cPr)][NMehhhLys(Me)]L[NMe3Pal(2-OMe,5-Cl)]; lactam 3-C) | 0.01 | 0.02 | 0.01 | 12.4 | 0.1 | 0.03 | – | – | – | – |
| CCOc1ncc(Cl)cc1C[C@H]1C(=O)N(C)CCCCCCC[C@H](N(C)C(=O)[C@@H](NC(=O)[C@@H]2C[C@@H](F)CN2C(=O)[C@@]2(C(F)(F)F)CCCCO2)C2CC2)C(=O)N[C@@H](CC(C)C)C(=O)N1C [Example 226] ({Oxane2carbonyl(2R-CF3)}-[Pro(trans-4-F)][Gly(cPr)][NMehhhLys(Me)]L[X25]; lactam 3-C) | 0.02 | – | 0.03 | 8.39 | – | – | 0.02 | 0.1 | – | 0.02 |
| CCOc1ncc(Cl)cc1C[C@H]1C(=O)N(C)CCCCCCC[C@H](N(C)C(=O)[C@@H](NC(=O)[C@@H]2C[C@@H](F)CN2C(=O)C2(C(F)(F)F)CCC2)C2CC2)C(=O)N[C@@H](CC(C)C)C(=O)N1C [Example 227] ({Cyclobutanecarbonyl(1-CF3)}-[Pro(trans-4-F)][Gly(cPr)][NMehhhLys(Me)]L[X25]; lactam 3-C) | 0.02 | – | 0.04 | 14.1 | – | – | 0.02 | 0.12 | 0.03 | – |
| CC(C)COc1ncc(Cl)cc1C[C@H]1C(=O)N(C)CCCCCCC[C@H](N(C)C(=O)[C@@H](NC(=O)[C@@H]2C[C@@H](F)CN2C(=O)C2(C(F)(F)F)CCC2)C2CC2)C(=O)N[C@@H](CC(C)C)C(=O)N1C [Example 230] ({Cyclobutanecarbonyl(1-CF3)}-[Pro(trans-4-F)][Gly(cPr)][NMehhhLys(Me)]L[NMe3Pal(2-OiBu,5-Cl)]; lactam 3-C) | 0.04 | – | 0.09 | 5.05 | – | – | 0.02 | 0.14 | 0.03 | – |
| Cc1nc2c(F)cc(-c3ccc(Cl)cc3C[C@H]3C(=O)N(C)CCCCCCC[C@H](N(C)C(=O)[C@@H](NC(=O)[C@@H]4C[C@@H](F)CN4C(=O)C4(C(F)(F)F)CC(F)(F)C4)C4CC4)C(=O)N[C@@H](CC(C)C)C(=O)N3C)cc2n1C(C)C [Example 231] ({cBuCO(3,3-F2-1-CF3)}-[Pro(trans-4-F)][Gly(cPr)][NMehhhLys(Me)]L[X61]; lactam 3-C) | 0.02 | – | 0.04 | 13.4 | – | – | 0.02 | 2.94 | 0.06 | – |
| CC(C)C[C@@H]1NC(=O)[C@@H](N(C)C(=O)[C@@H](NC(=O)[C@@H]2C[C@@H](F)CN2C(=O)C2(C(F)(F)F)CC(F)(F)C2)C2CC2)CCCCCCCN(C)C(=O)[C@H](Cc2cc(Cl)ccc2-c2ccc3ncnn3c2)N(C)C1=O [Example 232] ({cBuCO(3,3-F2-1-CF3)}-[Pro(trans-4-F)][Gly(cPr)][NMehhhLys(Me)]L[X2]; lactam 3-C) | 0.05 | – | 0.08 | 11.6 | – | – | 0.02 | 2.87 | 0.05 | – |
| CC(C)C[C@@H]1NC(=O)[C@@H](N(C)C(=O)[C@@H](NC(=O)[C@@H]2C[C@@H](F)CN2C(=O)C2(C(F)(F)F)CC(F)(F)C2)C2CC2)CCCCCCCN(C)C(=O)[C@H](Cc2cc(Cl)ccc2-c2cnn3c2COCC3)N(C)C1=O [Example 233] ({cBuCO(3,3-F2-1-CF3)}-[Pro(trans-4-F)][Gly(cPr)][NMehhhLys(Me)]L[X83]; lactam 3-C) | 0.03 | – | 0.03 | 15.2 | – | – | 0.02 | 1.6 | 0.05 | – |
| Cc1c(-c2ccc(Cl)cc2C[C@H]2C(=O)N(C)CCCCCCC[C@H](N(C)C(=O)[C@@H](NC(=O)[C@@H]3C[C@@H](F)CN3C(=O)C3(C(F)(F)F)CC(F)(F)C3)C3CC3)C(=O)N[C@@H](CC(C)C)C(=O)N2C)cnn1C [Example 234] ({cBuCO(3,3-F2-1-CF3)}-[Pro(trans-4-F)][Gly(cPr)][NMehhhLys(Me)]L[X67]; lactam 3-C) | 0.01 | – | 0.01 | 10.7 | – | – | 0.02 | 0.83 | 0.03 | – |
| Cc1cc(-c2ccc(Cl)cc2C[C@H]2C(=O)N(C)CCCCCCC[C@H](N(C)C(=O)[C@@H](NC(=O)[C@@H]3C[C@@H](F)CN3C(=O)C3(C(F)(F)F)CC(F)(F)C3)C3CC3)C(=O)N[C@@H](CC(C)C)C(=O)N2C)n(C)n1 [Example 235] ({cBuCO(3,3-F2-1-CF3)}-[Pro(trans-4-F)][Gly(cPr)][NMehhhLys(Me)]L[X113]; lactam 3-C) | 0.1 | – | 0.09 | 13.2 | – | – | 0.02 | 6.08 | 0.14 | – |
